Data set [1] in a line: Accelerated storage stability studies, purity by HPLC. The data set is classed as physicochemical. How it is done:
Samples “a” were placed in glass bottles and sealed in a Marvel seal bag under an argon head space, all air having been removed. These were stored at a temperature of 40±2° C. and relative humidity of 75±2%. Samples “b” were similarly packaged and sealed under argon headspace, but stored at 25±2° C. and 60±5% relative humidity. Samples “c” were similarly packaged and sealed under argon headspace, but stored at 5±3° C. Samples “e”, comparative standards, were similarly packaged and sealed under argon headspace, but stored at −20±5° C.
Samples “d” and “f” were placed in glass bottles, but without a marvel seal bag, and stored under air headspace −20±5° C. (samples “d”) and 40±2° C. and relative humidity of 75±2% (samples “f”).
Samples stored at elevated or reduced temperatures were brought to room temperature just prior to sample preparation.
Purity determinations were conducted by High Performance Liquid Chromatography (HPLC), using a Waters Sunfire C18 HPLC Column, 250 by 4.6 mm, with a quaternary or binary HPLC pump, a variable wavelength or photo diode array UV/visible detector set to 252 nm, and an autosampler. Water (degassed) and acetonitrile (degassed) were used as the mobile phase. The column temperature was 25° C., the flow rate 2.0 mL/min with an injection volume of 100 μL and a run time of 60 minutes.

Data set [2] in a line: ICH test protocol storage stability. The settings on record: argon headspace, 6 months. The data set is classed as physicochemical.

As for `C[C@H](/C=C/[C@H](C)C(C)(C)O)[C@H]1CC[C@H]2/C(=C/C=C3C[C@@H](O)C[C@H](O)C3)CCC[C@]12C` [Paricalcitol, 1α,25-dihydroxy-19-nor-vitamin D2], the “change in purity on storage” value in data set [1] (air headspace, 1 month, 40±2° C., 75%±2% relative humidity, paricalcitol of at least 99.9% purity) was “no reduction in purity”; in data set [1] (argon headspace, 5 months, 40±2° C., 75±2% relative humidity), “no reduction in purity”; in data set [2] (5±3° C.) it was “no reduction in purity”; in data set [2] (−20±5° C.) it was “no reduction in purity”. Moreover, the purity after storage in data set [1] (samples a: argon headspace, 40±2° C., 75±2% relative humidity, 1 month) was found to be 99.9%; in data set [1] (samples a: argon headspace, 40±2° C., 75±2% relative humidity, 5 months), 99.9%; in data set [1] (samples b: argon headspace, 25±2° C., 60±5% relative humidity, 1 month), 99.9%; in data set [1] (samples b: argon headspace, 25±2° C., 60±5% relative humidity, 5 months), 99.8%; in data set [1] (samples c: argon headspace, 5±3° C., 1 month), 99.9%; in data set [1] (samples c: argon headspace, 5±3° C., 2 months), 99.9%. In addition, the purity after storage in data set [1] (samples c: argon headspace, 5±3° C., 5 months) was determined as 99.9%; in data set [1] (samples d: air headspace, −20±5° C., 1 month) it was 99.9%; in data set [1] (samples d: air headspace, −20±5° C., 5 months) it was 99.9%; in data set [1] (samples e: argon headspace, −20±5° C., 1 month), 99.9%; in data set [1] (samples e: argon headspace, −20±5° C., 2 months) it was 99.9%; in data set [1] (samples e: argon headspace, −20±5° C., 5 months), 99.9%. In data set [1] (samples f: air headspace, 40±2° C., 75±2% relative humidity, 1 month), this compound showed a purity after storage of 99.9%.

These data come from patent US8013176B2, “Paricalcitol purification” (Alphora Research Inc., priority 2008, dated 2011).
